The source of these data is patent publication US20140031217A1, “HERBICIDAL COMPOSITIONS COMPRISING 4-AMINO-3-CHLORO-5-FLUORO-6-(4-CHLORO-2-FLUORO-3-METHOXYPHENYL)PYRIDINE-2-CARBOXYLIC ACID OR A DERIVATIVE THEREOF AND AUXIN TRANSPORT INHIBITORS” (DOW AGROSCIENCES LLC, priority 2012, published 2014).

The test system of one experiment is ECHCG. Description: In-water applied (paddy) greenhouse weed control, ECHCG. The experiment is classed as in vivo, Echinochloa crusgalli (L.) Beauv. The protocol:
(§1) Weed seeds or nutlets of the desired test plant species were planted in puddled soil (mud) prepared by mixing a shredded, non-sterilized mineral soil (50.5 percent silt, 25.5 percent clay, and 24 percent sand, with a pH of about 7.6 and an organic matter content of about 2.9 percent) and water at a 1:1 volumetric ratio. The prepared mud was dispensed in 365 mL aliquots into 16-ounce (oz.) non-perforated plastic pots with a surface area of 86.59 square centimeters (cm^2) leaving a headspace of 3 centimeters (cm) in each pot. Mud was allowed to dry overnight prior to planting or transplanting. Rice seeds were planted in Sun Gro MetroMix® 306 planting mixture, which typically has a pH of 6.0 to 6.8 and an organic matter content of about 30 percent, in plastic plug trays. Seedlings at the second or third leaf stage of growth were transplanted into 840 mL of mud contained in 32-oz. non-perforated plastic pots with a surface area of 86.59 cm^2 4 days prior to herbicide application. The paddy was created by filling the headspace of the pots with 2.5 to 3 cm of water. When required to ensure good germination and healthy plants, a fungicide treatment and/or other chemical or physical treatment was applied. The plants were grown for 4-22 days in a greenhouse with an approximate 14 h photoperiod which was maintained at about 29′C during the day and 26° C. during the night. Nutrients were added as Osmocote® (19:6:12, N:P:K+minor nutrients) at 2 g per 16-oz. pot and 4 g per 960-mL 32-oz. pot. Water was added on a regular basis to maintain the paddy flood, and supplemental lighting was provided with overhead metal halide 1000-Watt lamps as necessary. The plants were employed for testing when they reached the second or third true leaf stage.
(§2) Treatments consisted of the acid or esters of 4-amino-3-chloro-5-fluoro-6-(4-chloro-2-fluoro-3-methoxy-phenyl)pyridine-2-carboxylic acid (compound A) each formulated as an SC and various herbicidal components alone and in combination. Forms of compound A were applied on an acid equivalent basis.
(§3) Other herbicidal components were applied on an active ingredient basis and included auxin transport inhibiting (ATI) herbicides chlorflurenol-methyl (technical material), chlorflurenol (technical material), diflufenzopyr (technical material), dilfufenzopyr sodium (technical material), flurenol-methyl (technical material,) and naptalam (technical material).
(§4) Treatment requirements for each compound or herbicidal component were calculated based upon the rates being tested, the concentration of active ingredient or acid equivalent in the formulation, an application volume of 2 mL per component per pot, and an application area of 86.59 cm^2 per pot.
(§5) For formulated compounds, a measured amount was placed in an individual 100 or 200 mL glass vial and was dissolved in a volume of 1.25% (v/v) Agri-Dex® crop oil concentrate to obtain application solutions.
(§6) For technical grade compounds, a weighed amount was placed in an individual 100 to 200 mL glass vial and was dissolved in a volume of acetone to obtain concentrated stock solutions. […] The concentrated stock solutions obtained were diluted with an equivalent volume of an aqueous mixture containing 2.5% (v/v) crop oil concentrate so that the final application solutions contained 1.25% (v/v) crop oil concentrate.
(§7) Applications were made by injecting with a pipetter appropriate amounts of the application solutions, individually and sequentially, into the aqueous layer of the paddy. Control plants were treated in the same manner with the solvent blank. Applications were made so that all treated plant material received the same concentrations of acetone and crop oil concentrate.
(§8) The treated plants and control plants were placed in a greenhouse as described above and water was added as needed to maintain a paddy flood. […]

Another experiment has as its system SCPMA. Kind of experiment: In-water applied (paddy) greenhouse weed control, SCPMA. The experiment is classed as in vivo. The protocol:
as §1, §2, §3, §4, §5, §6, §7, §8

SMILES strings stand for the structures.

Take `COc1c(Cl)ccc(-c2nc(C(=O)O)c(Cl)c(N)c2F)c1F` [Compound A Acid, 4-amino-3-chloro-6-(4-chloro-2-fluoro-3-methoxyphenyl)-5-fluoropyridine-2-carboxylic acid]: the “Visual Weed Control (%) Obs” value came to 50% with ECHCG (20 DAA, 17.5 gae/ha); 95% with ECHCG (20 DAA, 35 gae/ha); 0% in the experiment with ECHCG (22 DAA, 8.75 gae/ha); 15% in the experiment with ECHCG (22 DAA, 17.5 gae/ha); 15% in the experiment on ECHCG (22 DAA, 35 gae/ha); 0% with SCPMA (20 DAA, 8.75 gae/ha). Further, the “Visual Weed Control (%) Obs” value is given as 0% with SCPMA (20 DAA, 17.5 gae/ha); 30% with SCPMA (20 DAA, 35 gae/ha); 0% with SCPMA (22 DAA, 8.75 gae/ha); 0% with SCPMA (22 DAA, 17.5 gae/ha); 0% in the experiment on SCPMA (22 DAA, 35 gae/ha).
Regarding `COc1c(Cl)ccc(-c2nc(C(=O)OCc3ccccc3)c(Cl)c(N)c2F)c1F` [Compound A Benzyl Ester], the “Visual Weed Control (%) Obs” value with ECHCG (19 DAA, 8 gae/ha) is given as 30%; with ECHCG (19 DAA, 16 gae/ha), 20%; in the experiment with ECHCG (19 DAA, 32 gae/ha), 40%; in the experiment with ECHCG (20 DAA, 4.38 gae/ha), 40%; with ECHCG (22 DAA, 4.38 gae/ha) it was 10%; with ECHCG (22 DAA, 8.75 gae/ha), 25%. Also, the “Visual Weed Control (%) Obs” value in the experiment with ECHCG (22 DAA, 17.5 gae/ha) came to 60%; in the experiment on SCPMA (20 DAA, 4.38 gae/ha), 0%; in the experiment on SCPMA (20 DAA, 8.75 gae/ha) it was 0%; in the experiment on SCPMA (20 DAA, 17.5 gae/ha) it was 0%; with SCPMA (22 DAA, 8.75 gae/ha) it was 0%; in the experiment on SCPMA (22 DAA, 17.5 gae/ha) it was 0%.
